Changes are numbered by the printed parent chain.
Legend:
14-3-3 isoforms = assay: Phosphorylation of recombinant 14-3-3 isoforms by PKA catalytic subunit; format: biochemical; conditions: 50 μM in 0.1% ethanol
Protocol: FIG. 3 is an image depicting that sphingosine is required for the phosphorylation of multiple 14-3-3 isoforms in the third helix. (A) Primary sequence alignment of 14-3-3 isoforms in the third helix showing conservation of a Ser phosphorylation site (shown in bold). Asterisks indicate identical amino acids. (B) Recombinant 14-3-3 isoforms were incubated with PKA catalytic subunit in the presence of 50 μM sphingosine, dimethyl-sphingosine (DMS) or FTY 720 (FTY) delivered in 0.1% ethanol (EtOH). Phosphorylated 14-3-3s were detected by autoradiography. Gels were coomassie stained to show equal loading of 14-3-3 substrate.
Substrate 14-3-3 (either 0.5 μg of purified recombinant 14-3-3, a […] of fractions from gel filtration or immunoprecipitates from 14-3-3ζ-Myc transfected COS cells) were added to reaction mixture comprising 0.2 Units of the PKA catalytic subunit, in the presences or absence of sphingolipid (delivered in 0.1% v/v ethanol) in PICA reaction buffer (20 mM MOPS, pH 7.4, 20 mM β-glycerol phosphate, 4 mM EGTA, 1 mM Na3VO4, 60 mM MgCl2, 1 mM DTT, 500 μM ATP, 2.4 μCi [^32P]γ-ATP). Reactions were incubated at 37° C. for 15 minutes. After incubation, reactions were separated on 12.5% SDS-PAGE, coomassie stained and 14-3-3 phosphorylation analysed by autoradiography.

Jurkat cells = assay: Jurkat cell apoptosis (TMRE staining, NucView caspase activity); format: cell-based; conditions: 2 μM
Source text: (A) Immunoblotting of lysates from either parental Jurkat cells (Jurkat) or cells transduced with lentivirus encoding either wild type (Wt) or S58A 14-3-3ζ-Myc with either an anti-14-3-3ζ specific antibody (upper panel) or an anti-pan 14-3-3 antibody (middle panel) to compare the expression level of transduced protein. Myc immunoprecipitates were also immunoblotted with an anti-phospho 14-3-3 binding site antibody (lower panel) to detect proteins associated with 14-3-3ζ-Myc. Endogenous 14-3-3 is indicated by an open arrow and exogenous 14-3-3ζ-Myc with a closed arrow. (B) Lysates from either wild type (Wt) or S58A 14-3-3ζ-Myc expressing Jutkat cells were subjected to in vitro PKA phosphorylation in the presence (+) or absence (−) of […] and the samples immunoblotted after SDS-PAGE separation With either anti-Myc antibody (upper panel), anti-14-3-3ζ antibody (middle panel) or anti-phospho Ser58 14-3-3ζ antibody (lower panel). (C) Serum-starved Jurkat cells were treated with 2 μM FTY720 for 4 h prior to staining with TMRE and NucView™. Forward- versus side-scatter plots (FS versus SS) show the viable cell populations for FTY720 and EtOH (vehicle) treated cells which are analysed in the lower histograms for caspase activity (NucView™) versus ΔΨM (TMRE). (D and E) Jurkat cell lines expressing either wild type or S58A 14-3-3ζ-Myc by lentiviral transduction were serum-starved for 2 h and treated with either 0.1% ethanol vehicle alone (EtOH), 2 μM dimethyl-sphingosine (DMS), or 2 μM FTY720. Cells were analysed by TMRE staining at 4 h (D) or at the time points indicated (E). (D) Representative analyses of TMRE staining with forward- versus side-scatter plots inset to show the similarity in cell populations. (E) Graphical representation of TMRE analysis over time with open symbols representing vehicle (0.1% EtOH) treated cells and closed symbols representing FTY720 treated cells. […]
FIG. 11. […] Effect of TMAs on Jurkat cells after 16 hours incubation assessed by ΔΨM (TMRE) and caspase 3 activity (NucView™) analysis. […] Forward-side-scatter histograms showing cell viability are inset and caspase 3 activity as assessed by NucView™ analysis of viable cells shown. E. Examples of TMA-derivatives of FTY720 that will be analysed for effects on 14-3-3 dimer stability and apoptosis.
Having confirmed appropriate expression and behaviour of Myc-tagged wild type and S58A 14-3-3ζ in the Jurkat lines, these cells were utilised in functional studies to determine the effect of S58A 14-3-3ζ expression on cell survival in response to sphingosine analogues. […] Intriguingly, Jurkat cells expressing S58A 14-3-3ζ-Myc consistently underwent commitment to apoptosis (as detected by the loss of TMRE staining) more slowly than those expressing wild type 14-3-3ζ-Myc (FIG. 8D).

14-3-3ζ D20N mutant = target: T1, 14-3-3ζ D20N mutant (Homo sapiens, UniProt P63104, D20N); assay: Phosphorylation of D20N mutant 14-3-3ζ by PKA catalytic subunit with FTY720; format: biochemical; conditions: increasing concentrations of FTY720, FIG. 9C
T1 construct: made in house
T1 sequence (P63104 1-245 D20N): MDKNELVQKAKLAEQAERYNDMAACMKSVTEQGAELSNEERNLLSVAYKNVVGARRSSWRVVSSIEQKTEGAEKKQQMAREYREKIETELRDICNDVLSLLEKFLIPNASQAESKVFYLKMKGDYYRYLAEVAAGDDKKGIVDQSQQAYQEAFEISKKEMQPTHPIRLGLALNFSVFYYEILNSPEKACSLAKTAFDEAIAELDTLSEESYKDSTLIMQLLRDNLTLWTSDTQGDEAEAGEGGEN
Source text: FIG. 9 A depicts a side view of 14-3-3ζ in space filling representation indicating the orientation of view B. The monomer units (in green and orange) and interacting phospho-peptides, (in cyan) bound in the dual amphipathic grooves are shown. B. Bottom-up view of 14-3-3ζ with the location of S58 phosphorylation site (indicated by arrows and asterisk) and key surface acidic (in yellow) and basic (in blue) residues shown. C. In vitro phosphorylation of 14-3-3ζ wild type and mutants as indicated by catalytic PKA subunit in the presence of increasing concentrations of FTY720. […] D. Mutant 14-3-3 (as indicated) was analysed by native-PAGE and Coomassie staining. The arrow indicates the migration of dimeric 14-3-3 protein. E. A schematic representation of a 14-3-3 dimer showing the buried S58 phosphorylation site in pink, D20, the residue proposed to interact with sphingolipid in yellow and the predicted salt bridge interactions involved in dimerisation. F. & G. In silico docking of FTY720 (shown in cyan in F.) and sphingosine (in pink in G.) in 14-3-3ζ dimer interface.
The dimer interface of 14-3-3 proteins lies at the bottom of the phospho-serine binding groove and comprises a central hole of around 10 Å in diameter in which the Ser58 phosphorylation site is positioned (FIG. 9B, indicated by *). […]

14-3-3ζ = target: T2, 14-3-3ζ (Homo sapiens, UniProt P63104); assay: 14-3-3 phosphorylation by PKA catalytic subunit (autoradiography); format: biochemical; conditions: increasing concentrations of FTY720, FIG. 9C
T2 construct: made in house
T2 sequence (P63104 1-245): T1 sequence (P63104 1-245 D20N) with N20D

[1] = 4 h, serum-starved Jurkat cells

CCCCCCCCc1ccc(CCC(N)(CO)CO)cc1 [FTY720]
phosphorylation of 14-3-3 isoforms by PKA catalytic subunit (14-3-3 isoforms): behaved similarly to sphingosine and DMS in modulating 14-3-3 for phosphorylation
caspase-3 activity (NucView) (Jurkat cells; [1]): activation of caspase-3
commitment to apoptosis (loss in TMRE staining) (Jurkat cells; [1]): rapid commitment to apoptosis
commitment to apoptosis in S58A versus wild type 14-3-3ζ-Myc expressing cells (TMRE) (Jurkat cells; Jurkat cells expressing S58A 14-3-3ζ-Myc): delayed mitochondrial permeability transition
phosphorylatability of D20N 14-3-3ζ by PKA catalytic subunit (14-3-3ζ D20N mutant): only weakly phosphorylatable
phosphorylatability of wild-type 14-3-3ζ by PKA catalytic subunit (14-3-3ζ): increasing phosphorylatability

Reference: patent US20130231305A1, “Method of Modulating Protein 14-3-3 Functionality By Facilitating or Inhibiting Phosphorylation” (Medvet Science Pty. Ltd., priority 2010, published 2013)
